Reference: patent US8030443B2, “Squamous cell carcinoma antigen-derived peptide binding to HLA-A24 molecule” (Kurume University, priority 2005, dated 2011)

System: peptide-specific IgG in sera of cancer patients and healthy donors
Assay: Measurement of anti-peptide IgG in plasma by LUMINEX multiplexed flow cytometric assay
Assay type: binding, human
Conditions: for Total: healthy donors with significant peptide-reactive IgG / donors tested: 10 healthy donors; for Total: healthy donors with significant peptide-reactive IgG / donors tested / Total: cancer patients with significant peptide-reactive IgG / patients tested: significant when fluorescence intensity exceeded 100 at 1/100 dilution; for Total: cancer patients with significant peptide-reactive IgG / patients tested: 71 cancer patients
Outline: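 Plasma diluted 1/100 incubated with peptide-coupled colour-coded beads 2 h at RT, then biotinylated goat anti-human IgG (γ-chain) 1 h and streptavidin-PE 30 min; fluorescence read by multiplexed flow cytometry, >100 counted significant. Specificity checked by three rounds of absorption on corresponding versus irrelevant SCCA peptide.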

[1] = serum of Breast Ca. patient #36, 1:100 dilution
[2] = serum of Breast Ca. patient #37, 1:100 dilution
[3] = serum of Breast Ca. patient #38, 1:100 dilution
[4] = serum of Breast Ca. patient #39, 1:100 dilution
[5] = serum of Breast Ca. patient #40, 1:100 dilution
[6] = serum of Breast Ca. patient #41, 1:100 dilution
[7] = serum of Breast Ca. patient #42, 1:100 dilution
[8] = serum of Breast Ca. patient #43, 1:100 dilution
[9] = serum of Breast Ca. patient #44, 1:100 dilution
[10] = serum of Breast Ca. patient #45, 1:100 dilution
[11] = serum of Colon Ca. patient #66, 1:100 dilution
[12] = serum of Colon Ca. patient #67, 1:100 dilution
[13] = serum of Colon Ca. patient #68, 1:100 dilution
[14] = serum of Colon Ca. patient #69, 1:100 dilution
[15] = serum of Colon Ca. patient #70, 1:100 dilution
[16] = serum of Colon Ca. patient #71, 1:100 dilution
[17] = serum of Gastric Ca. patient #56, 1:100 dilution
[18] = serum of Gastric Ca. patient #57, 1:100 dilution
[19] = serum of Gastric Ca. patient #58, 1:100 dilution
[20] = serum of Gastric Ca. patient #59, 1:100 dilution
[21] = serum of Gastric Ca. patient #60, 1:100 dilution
[22] = serum of Gastric Ca. patient #61, 1:100 dilution
[23] = serum of Gastric Ca. patient #62, 1:100 dilution
[24] = serum of Gastric Ca. patient #63, 1:100 dilution
[25] = serum of Gastric Ca. patient #64, 1:100 dilution
[26] = serum of Gastric Ca. patient #65, 1:100 dilution
[27] = serum of Healthy Donor #1, 1:100 dilution
[28] = serum of Healthy Donor #2, 1:100 dilution
[29] = serum of Healthy Donor #3, 1:100 dilution
[30] = serum of Healthy Donor #4, 1:100 dilution
[31] = serum of Healthy Donor #5, 1:100 dilution
[32] = serum of Healthy Donor #6, 1:100 dilution
[33] = serum of Healthy Donor #7, 1:100 dilution
[34] = serum of Healthy Donor #8, 1:100 dilution
[35] = serum of Healthy Donor #9, 1:100 dilution
[36] = serum of Healthy Donor #10, 1:100 dilution
[37] = serum of Pancreas Ca. patient #46, 1:100 dilution
[38] = serum of Pancreas Ca. patient #47, 1:100 dilution
[39] = serum of Pancreas Ca. patient #48, 1:100 dilution
[40] = serum of Pancreas Ca. patient #49, 1:100 dilution
[41] = serum of Pancreas Ca. patient #50, 1:100 dilution
[42] = serum of Pancreas Ca. patient #51, 1:100 dilution
[43] = serum of Pancreas Ca. patient #52, 1:100 dilution
[44] = serum of Pancreas Ca. patient #53, 1:100 dilution
[45] = serum of Pancreas Ca. patient #54, 1:100 dilution
[46] = serum of Pancreas Ca. patient #55, 1:100 dilution
[47] = serum of Uterine cervical Ca. patient #1, 1:100 dilution
[48] = serum of Uterine cervical Ca. patient #2, 1:100 dilution
[49] = serum of Uterine cervical Ca. patient #3, 1:100 dilution
[50] = serum of Uterine cervical Ca. patient #4, 1:100 dilution
[51] = serum of Uterine cervical Ca. patient #5, 1:100 dilution
[52] = serum of Uterine cervical Ca. patient #6, 1:100 dilution
[53] = serum of Uterine cervical Ca. patient #7, 1:100 dilution
[54] = serum of Uterine cervical Ca. patient #8, 1:100 dilution
[55] = serum of Uterine cervical Ca. patient #9, 1:100 dilution
[56] = serum of Uterine cervical Ca. patient #10, 1:100 dilution
[57] = serum of Uterine cervical Ca. patient #11, 1:100 dilution
[58] = serum of Uterine cervical Ca. patient #12, 1:100 dilution
[59] = serum of Uterine cervical Ca. patient #13, 1:100 dilution
[60] = serum of Uterine cervical Ca. patient #14, 1:100 dilution
[61] = serum of Uterine cervical Ca. patient #15, 1:100 dilution
[62] = serum of Uterine cervical Ca. patient #16, 1:100 dilution
[63] = serum of Uterine cervical Ca. patient #17, 1:100 dilution
[64] = serum of Uterine cervical Ca. patient #18, 1:100 dilution
[65] = serum of Uterine cervical Ca. patient #19, 1:100 dilution
[66] = serum of Uterine cervical Ca. patient #20, 1:100 dilution
[67] = serum of Uterine cervical Ca. patient #21, 1:100 dilution
[68] = serum of Uterine cervical Ca. patient #22, 1:100 dilution
[69] = serum of Uterine cervical Ca. patient #23, 1:100 dilution
[70] = serum of Uterine cervical Ca. patient #24, 1:100 dilution
[71] = serum of Uterine cervical Ca. patient #25, 1:100 dilution
[72] = serum of Uterine cervical Ca. patient #26, 1:100 dilution
[73] = serum of Uterine cervical Ca. patient #27, 1:100 dilution
[74] = serum of Uterine cervical Ca. patient #28, 1:100 dilution
[75] = serum of Uterine cervical Ca. patient #29, 1:100 dilution
[76] = serum of Uterine cervical Ca. patient #30, 1:100 dilution
[77] = serum of Uterine cervical Ca. patient #31, 1:100 dilution
[78] = serum of Uterine cervical Ca. patient #32, 1:100 dilution
[79] = serum of Uterine cervical Ca. patient #33, 1:100 dilution
[80] = serum of Uterine cervical Ca. patient #34, 1:100 dilution
[81] = serum of Uterine cervical Ca. patient #35, 1:100 dilution

With “EYLDAIKKF (SCCA 118-126 peptide) [SCCA-derived peptide, position 118-126]” the “Total: healthy donors with significant peptide-reactive IgG / donors tested” value was 2/10, the “Total: cancer patients with significant peptide-reactive IgG / patients tested” value was 7/71 and the Fluorescence intesity [1] was 5. For the same sequence, the Fluorescence intesity [2] was 23, the Fluorescence intesity [3] was 1 and the Fluorescence intesity [4] was 1. For the same sequence, the Fluorescence intesity [5] was 0, the Fluorescence intesity [6] was 123 and the Fluorescence intesity [7] was 14. The Fluorescence intesity [8] was 7, the Fluorescence intesity [9] was 0 and the Fluorescence intesity [10] was 18. It also gave a Fluorescence intesity [11] of 2, a Fluorescence intesity [12] of 0 and a Fluorescence intesity [13] of 0. It also gave a Fluorescence intesity [14] of 0, a Fluorescence intesity [15] of 0 and a Fluorescence intesity [16] of 17. For the same sequence, the Fluorescence intesity [17] was 0, the Fluorescence intesity [18] was 0 and the Fluorescence intesity [19] was 0. For the same sequence, the Fluorescence intesity [20] was 21, the Fluorescence intesity [21] was 0 and the Fluorescence intesity [22] was 5. The Fluorescence intesity [23] was 0, the Fluorescence intesity [24] was 0 and the Fluorescence intesity [25] was 2. It also gave a Fluorescence intesity [26] of 0, a Fluorescence intesity [27] of 0 and a Fluorescence intesity [28] of 47. The Fluorescence intesity [29] was 0, the Fluorescence intesity [30] was 0 and the Fluorescence intesity [31] was 0. It also gave a Fluorescence intesity [32] of 0, a Fluorescence intesity [33] of 0 and a Fluorescence intesity [34] of 324. The Fluorescence intesity [35] was 37, the Fluorescence intesity [36] was 0 and the Fluorescence intesity [37] was 0. For the same sequence, the Fluorescence intesity [38] was 0, the Fluorescence intesity [39] was 404 and the Fluorescence intesity [40] was 0. The Fluorescence intesity [41] was 0, the Fluorescence intesity [42] was 0 and the Fluorescence intesity [43] was 79. It also gave a Fluorescence intesity [44] of 0, a Fluorescence intesity [45] of 0 and a Fluorescence intesity [46] of 0. For the same sequence, the Fluorescence intesity [47] was 0, the Fluorescence intesity [48] was 0 and the Fluorescence intesity [49] was 0. For the same sequence, the Fluorescence intesity [50] was 0, the Fluorescence intesity [51] was 0 and the Fluorescence intesity [52] was 507. The Fluorescence intesity [53] was 11, the Fluorescence intesity [54] was 24 and the Fluorescence intesity [55] was 82. It also gave a Fluorescence intesity [56] of 13, a Fluorescence intesity [57] of 20 and a Fluorescence intesity [58] of 37. It also gave a Fluorescence intesity [59] of 20, a Fluorescence intesity [60] of 16 and a Fluorescence intesity [61] of 87. For the same sequence, the Fluorescence intesity [62] was 179, the Fluorescence intesity [63] was 45 and the Fluorescence intesity [64] was 42. For the same sequence, the Fluorescence intesity [65] was 41, the Fluorescence intesity [66] was 100 and the Fluorescence intesity [67] was 20. For the same sequence, the Fluorescence intesity [68] was 20, the Fluorescence intesity [69] was 44 and the Fluorescence intesity [70] was 1169. The Fluorescence intesity [71] was 15, the Fluorescence intesity [72] was 106 and the Fluorescence intesity [73] was 28. The Fluorescence intesity [74] was 71, the Fluorescence intesity [75] was 13 and the Fluorescence intesity [76] was 25. It also gave a Fluorescence intesity [77] of 101, a Fluorescence intesity [78] of 16 and a Fluorescence intesity [79] of 114. The Fluorescence intesity [80] was 16 and the Fluorescence intesity [81] was 19.
“AYELKIANKL (SCCA 98-107 peptide) [SCCA-derived peptide, position 98-107]” was tested, and the “Total: healthy donors with significant peptide-reactive IgG / donors tested” value was 1/10, the “Total: cancer patients with significant peptide-reactive IgG / patients tested” value was 12/71 and the Fluorescence intesity [1] was 44. The Fluorescence intesity [2] was 18, the Fluorescence intesity [3] was 12 and the Fluorescence intesity [4] was 20. The Fluorescence intesity [5] was 10, the Fluorescence intesity [6] was 214 and the Fluorescence intesity [7] was 12. For the same sequence, the Fluorescence intesity [8] was 12, the Fluorescence intesity [9] was 0 and the Fluorescence intesity [10] was 18. The Fluorescence intesity [11] was 0, the Fluorescence intesity [12] was 0 and the Fluorescence intesity [13] was 0. The Fluorescence intesity [14] was 0, the Fluorescence intesity [15] was 0 and the Fluorescence intesity [16] was 26. It also gave a Fluorescence intesity [17] of 2, a Fluorescence intesity [18] of 0 and a Fluorescence intesity [19] of 0. For the same sequence, the Fluorescence intesity [20] was 15, the Fluorescence intesity [21] was 1 and the Fluorescence intesity [22] was 8. The Fluorescence intesity [23] was 0, the Fluorescence intesity [24] was 0 and the Fluorescence intesity [25] was 0. It also gave a Fluorescence intesity [26] of 0, a Fluorescence intesity [27] of 0 and a Fluorescence intesity [28] of 35. The Fluorescence intesity [29] was 0, the Fluorescence intesity [30] was 0 and the Fluorescence intesity [31] was 0. It also gave a Fluorescence intesity [32] of 0, a Fluorescence intesity [33] of 0 and a Fluorescence intesity [34] of 361. For the same sequence, the Fluorescence intesity [35] was 39, the Fluorescence intesity [36] was 0 and the Fluorescence intesity [37] was 0. The Fluorescence intesity [38] was 6, the Fluorescence intesity [39] was 369 and the Fluorescence intesity [40] was 0. It also gave a Fluorescence intesity [41] of 0, a Fluorescence intesity [42] of 0 and a Fluorescence intesity [43] of 100. For the same sequence, the Fluorescence intesity [44] was 0, the Fluorescence intesity [45] was 0 and the Fluorescence intesity [46] was 0. It also gave a Fluorescence intesity [47] of 11, a Fluorescence intesity [48] of 0 and a Fluorescence intesity [49] of 0. The Fluorescence intesity [50] was 0, the Fluorescence intesity [51] was 0 and the Fluorescence intesity [52] was 1226. It also gave a Fluorescence intesity [53] of 26, a Fluorescence intesity [54] of 26 and a Fluorescence intesity [55] of 58. The Fluorescence intesity [56] was 14, the Fluorescence intesity [57] was 33 and the Fluorescence intesity [58] was 33. The Fluorescence intesity [59] was 397, the Fluorescence intesity [60] was 26 and the Fluorescence intesity [61] was 136. The Fluorescence intesity [62] was 145, the Fluorescence intesity [63] was 72 and the Fluorescence intesity [64] was 71. The Fluorescence intesity [65] was 92, the Fluorescence intesity [66] was 85 and the Fluorescence intesity [67] was 28. For the same sequence, the Fluorescence intesity [68] was 28, the Fluorescence intesity [69] was 82 and the Fluorescence intesity [70] was 2650. The Fluorescence intesity [71] was 17, the Fluorescence intesity [72] was 166 and the Fluorescence intesity [73] was 33. It also gave a Fluorescence intesity [74] of 139, a Fluorescence intesity [75] of 21 and a Fluorescence intesity [76] of 50. The Fluorescence intesity [77] was 107, the Fluorescence intesity [78] was 18 and the Fluorescence intesity [79] was 191. For the same sequence, the Fluorescence intesity [80] was 17 and the Fluorescence intesity [81] was 21.
